# Columns and labels:
# human FSH receptor = target: T1, human FSH receptor (Homo sapiens, UniProt P23945); test: FSH receptor-dependent CRE-luciferase reporter gene assay (CHO FSH-R 6CRE-Luc cells); format: cell-based; settings: dose-response format in presence of EC50 of purified human FSH; * n=3, ** n=2 averages
# T1 construct: host or cells: CHO-K1 (CHO FSH-R 6CRE-Luc, 1D7 cells)
# T1 sequence (P23945 18-695): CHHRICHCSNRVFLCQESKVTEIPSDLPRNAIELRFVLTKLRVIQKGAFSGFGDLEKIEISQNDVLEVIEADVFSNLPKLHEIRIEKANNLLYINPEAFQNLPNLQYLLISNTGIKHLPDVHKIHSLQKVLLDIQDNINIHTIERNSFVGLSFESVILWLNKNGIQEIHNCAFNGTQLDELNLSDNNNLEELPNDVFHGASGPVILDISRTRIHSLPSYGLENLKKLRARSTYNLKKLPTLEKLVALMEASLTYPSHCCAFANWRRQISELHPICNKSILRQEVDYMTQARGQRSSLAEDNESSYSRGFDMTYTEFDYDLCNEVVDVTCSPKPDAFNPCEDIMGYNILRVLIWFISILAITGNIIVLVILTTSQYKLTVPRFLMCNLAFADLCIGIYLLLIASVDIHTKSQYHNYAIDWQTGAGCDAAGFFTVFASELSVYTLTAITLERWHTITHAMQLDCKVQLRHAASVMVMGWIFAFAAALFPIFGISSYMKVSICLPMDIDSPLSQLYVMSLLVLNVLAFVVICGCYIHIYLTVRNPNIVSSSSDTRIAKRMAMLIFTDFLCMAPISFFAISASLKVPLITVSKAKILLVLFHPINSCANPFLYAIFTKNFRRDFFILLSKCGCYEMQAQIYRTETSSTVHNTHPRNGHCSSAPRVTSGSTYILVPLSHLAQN
# Description: FOLLICLE-STIMULATING HORMONE RECEPTOR-DEPENDENT CRE-LUCIFERASE REPORTER GENE ASSAY FOR THE IDENTIFICATION OF FOLLICLE-STIMULATING HORMONE (FSH) ANTAGONISTS
# A Chinese hamster ovarian cell line that stably produces the human FSH receptor and a luciferase reporter gene regulated by cAMP response elements was used to identify and determine the relative potencies of human FSH receptor antagonists. See for example, Kelton, C. A., et al. Mol. Cell. Endocrinol. 89:141-151 (1992), Tilly, J. L., et al. Endocrinology 131:799-806(1992), and George, S. E., et al. J. Biomol. Screening 2:235-240 (1997).
# Compound Vehicle: Stock compounds were solubilized in an appropriate vehicle, e.g., phosphate buffered saline (PBS) or dimethyl sulfoxide (DMSO), at 30 mM. The compounds subsequently were diluted in DMSO to working dilutions of 1 and 20 or 30 mM for 2-dose testing format and 1 μM-10 mM for dose-response format. The DMSO dilutions were diluted 500-fold in sterile growth medium [D-MEM/F-12 (GIBCO/BRL; Grand Island, N.Y.) containing 15 mM HEPES, 2 mM l-glutamine, pyridoxine hydrochloride, phenol red and 5% FETALCLONE® II (HyClone Laboratories, Inc; Logan, Utah), 0.2% DMSO, 100 units penicillin G/ml, and 100 μg streptomycin sulfate/ml (GIBCO/BRL)]. The concentration of the vehicle in each of the compound dilutions was the same.
# Positive Controls: Purified human FSH (>98%) was purchased from Cortex Biochem, Inc. (San Leandro, Calif.) and 3-[(2S*,5R*)-5-{[2-(1H-Indol-3-yl)-ethylcarbamoyl]-methyl}-4-oxo-2-(5-phenylethynyl-thiophen-2-yl)-thiazolidin-3-yl]-benzamide (an FSH-R thiazolidinone antagonist) was prepared by processes described by R. A. Scheuerman et al. in U.S. Pat. No. 6,426,357 (Affymax).
# The CHO FSH-R 6CRE-Luc cells (1D7 cells) were obtained from Affymax (Palo Alto, Calif.). These Chinese hamster ovary cells (CHO-K1) were engineered genetically to stably express the recombinant human FSH receptor gene and a luciferase reporter gene under the regulation of 6 copies of a cAMP response element. The cells were plated one day prior to treatment into 96-well white opaque plates at a density of 50,000 cells/100 μl/well in growth medium. On the day of treatment, the growth medium was removed from the wells by aspiration and 50 μl of fresh growth medium was added to each well. The cells were incubated at 37° C. in a humidified incubator with 5% CO2/95% air.
# The treated cells were incubated for 4 hours at 37° C. in a humidified incubator with 5% CO2/95% air. At the end of the incubation period, luciferase activity was measured by chemiluminescence using a commercially available kit (LucScreen, Tropix, Inc., Bedford, Mass.) according to the manufacturer's specifications, except that Buffer 1 and Buffer 2 were mixed together in equal proportion prior to the addition of 100 μl of the combined reagents to each well. Chemiluminescence was detected using a luminometer (EG & G Berthold Microlumat LB 96 P, Wallac, Gaithersburg, Md.) with chemiluminescence measured for 1 sec/well. Background luminescence was measured for each well prior to the addition of the LucScreen reagent.
# In the 96-well 2-dose format, each compound was tested in duplicate at each dose. […] One plate was used to test a maximum of 22 compounds.
# The EC50 of purified human FSH alone was tested in triplicate with each test compound. The doses chosen to test each compound were extrapolated from the initial 2-dose screening process. Along with the test compounds, purified human FSH also was tested in a dose response (0.03, 0.1, 0.3, 1, 3, 10, and 30 ng/ml) for a positive control and quality control. One plate was used for 3 test compounds and the FSH positive control.
# Luciferase activity is expressed as relative light units/sec/well. Luciferase activity in antagonist was compared to the appropriate negative and positive controls. For 2-dose testing, results are reported as luciferase activity and are expressed as percent inhibition of the response obtained from the EC50 of FSH.
# hFSH-R = target: T2, hFSH-R (Homo sapiens, UniProt P23945); test: cAMP accumulation (RIA) in CHO-3D2 cells (hFSH-R), hFSH-induced; format: cell-based; settings: inhibition of cAMP accumulation induced by hFSH at EC20, CHO-3D2 cells
# T2 construct: expressed in transfected cells; host or cells: CHO-3D2 cells (CHO-K1 parental line)
# T2 sequence (P23945 18-695): T1 sequence (P23945 18-695)
# Procedure: IN VITRO BIO-ASSAY OF AGONISTS AND ANTAGONISTS TO THE FSH RECEPTOR. SELECTIVITY AND DEPENDENCY OF AGONISTS AND ANTAGONISTS TO THE FSH RECEPTOR
# Compound Vehicle: Stock compounds were solubilized in 100% DMSO (Sigma-Aldrich Chemical Co., St. Louis, Mo.) at a concentration of 30 mM. The compounds subsequently were diluted in sterile assay medium consisting of Opti-MEM® I (Invitrogen/Life Technologies, Carlsbad, Calif.) with 0.1% (w/v) BSA (Sigma-Aldrich) prior to use in the bio-assay. The final concentration of DMSO in the assay was 0.1%.
# Plated cells are then incubated at 37° C. in a humidified 5% CO2/95% air atmosphere.
# Assay: On the day of the assay, cells were washed three times with 100 μl/well of assay medium consisting of Opti-MEM® I (Invitrogen/Life Technologies) with 0.1% (w/v) BSA (Sigma-Aldrich). Medium was removed and 100 μl of assay medium was added to each well. Plates were incubated for an additional 30 minutes at 37° C. […] Reactions were terminated by the addition of 50 μl of 0.2N hydrochloric acid to each well and cAMP-accumulation was measured by radioimmunoassay (RIA) using a commercially available kit (Amersham Biosciences, Piscataway, N.J.).
# All test compounds were evaluated in a dose-response paradigm ranging from 0.01 to 30 μM. Controls and test compounds were evaluated in quadruplicate in a 96-well format.
# Along with the test compounds, FSH was run also as a postive control in the agonist mode using concentrations ranging from 0.1-1000 ng/ml.
# Data were analyzed by one-way analysis of variance and significant differences between treatments and control determined by Least Significant Difference test.
# Test compounds were compared to the effect of purified human FSH.
IC50 (human FSH receptor) [µM],IC50 (hFSH-R) [µM],melting point,SMILES
0.29,0.13,105 to 108 °C,N#CCc1ccccc1-c1ccc(C(=O)N2Cc3ccc(C(=O)NCc4cccnc4)n3Cc3ccccc32)cc1 [Example 17]
0.4,0.2,111 to 115 °C,CCC(O)c1ccccc1-c1ccc(C(=O)N2Cc3ccc(C(=O)NCc4cccnc4)n3Cc3ccccc32)cc1 (centres unmarked) [Example 58]
0.1,0.06,119 to 121 °C,O=C(NCc1cccnc1)c1ccc2n1Cc1ccccc1N(C(=O)c1ccc(-c3ccccc3CO)cc1)C2 [Example 59]
0.29,0.1,149 to 150 °C,CC(=O)c1ccccc1-c1ccc(C(=O)N2Cc3ccc(C(=O)NCc4cccnc4)n3Cc3ccccc32)cc1 [Example 51]
1.61,0.77,–,"CSc1ccccc1-c1ccc(C(=O)N2Cc3ccc(C(=O)NCc4cccnc4)n3Cc3ccccc32)cc1 [Example 14, 10-{[2′-(METHYLTHIO)-1,1′-BIPHENYL-4-YL]CARBONYL}-N-(PYRIDIN-3-YLMETHYL)-10,11-DIHYDRO-5H-PYRROLO[2,1-C][1,4]BENZODIAZEPINE-3-CARBOXAMIDE 0.67 HYDRATE]"
1.64,0.49,–,CC(C)C(O)c1ccccc1-c1ccc(C(=O)N2Cc3ccc(C(=O)NCc4cccnc4)n3Cc3ccccc32)cc1 (centres unmarked) [Example 37]
0.159,0.12,–,"CC(O)c1ccccc1-c1ccc(C(=O)N2Cc3ccc(C(=O)NCc4cccnc4)n3Cc3ccccc32)cc1 (single isomer, unassigned; (-)) [Example 53]"
0.156,0.02,–,COC(=O)Cc1ccccc1-c1ccc(C(=O)N2Cc3ccc(C(=O)NCc4cccnc4)n3Cc3ccccc32)cc1 [Example 32]
0.317,0.15,–,"CC(O)c1ccccc1-c1ccc(C(=O)N2Cc3ccc(C(=O)NCc4cccnc4)n3Cc3ccccc32)cc1 (single isomer, unassigned; (+)) [Example 54]"
0.94,0.33,–,CC(C)c1ccccc1-c1ccc(C(=O)N2Cc3ccc(C(=O)NCc4cccnc4)n3Cc3ccccc32)cc1 [Example 31]
0.078,0.09,–,NC(=O)Cc1ccccc1-c1ccc(C(=O)N2Cc3ccc(C(=O)NCc4cccnc4)n3Cc3ccccc32)cc1 [Example 38]

# Continued, compound first:
SMILES,IC50 (human FSH receptor) [µM],IC50 (hFSH-R) [µM],melting point
COCc1ccccc1-c1ccc(C(=O)N2Cc3ccc(C(=O)NCc4cccnc4)n3Cc3ccccc32)cc1C [Example 49],0.6,0.1,163 to 164 °C
O=C(c1ccccc1)c1ccc(C(=O)N2Cc3ccc(C(=O)NCc4cccnc4)n3Cc3ccccc32)cc1 [Example 75],> 30,21,211 to 213 °C (dec.)
O=C(NCc1cccnc1)c1ccc2n1Cc1ccccc1N(C(=O)c1ccc(-c3ccccn3)cc1)C2 [Example 107],3.12,0.2,159 to 161 °C
"COc1ccccc1-c1ccc(C(=O)N2Cc3ccc(C(=O)NCc4cccnc4Oc4ccccc4)n3Cc3ccccc32)cc1 [Example 7, 10-[(2′-METHOXY-1,1′-BIPHENYL-4-YL)CARBONYL]-N-[(2-PHENOXYPYRIDIN-3-YL)METHYL]-10,11-DIHYDRO-5H-PYRROLO[2,1-C][1,4]BENZODIAZEPINE-3-CARBOXAMIDE]",5.4,0.7,–
CCCc1ccc(C(=O)N2Cc3ccc(C(=O)NCc4cccnc4)n3Cc3ccccc32)cc1 [Example 98],4.96,0.4,–
COc1ccc(CNc2ccc(C(=O)N3Cc4ccc(C(=O)NCc5cccnc5)n4Cc4ccccc43)cn2)cc1 [Example 122],36.5,> 30,–
CCNC(=O)Cc1ccccc1-c1ccc(C(=O)N2Cc3ccc(C(=O)NCc4cccnc4)n3Cc3ccccc32)cc1 [Example 66],3.67,0.81,–
CC(C)(C)c1ccc(C(=O)N2Cc3ccc(C(=O)NCc4cccnc4)n3Cc3ccccc32)cc1 [Example 80],4.96,1.1,–
CN(C)c1ccc(C(=O)N2Cc3ccc(C(=O)NCc4cccnc4)n3Cc3ccccc32)cc1 [Example 84],5.82,1.2,–
Cc1cc(C(=O)N2Cc3ccc(C(=O)NCc4cccnc4)n3Cc3ccccc32)ccc1-c1ccccc1C(C)O (centres unmarked) [Example 50],1,0.3,–
Cc1cc(C(=O)N2Cc3ccc(C(=O)NCc4cccnc4)n3Cc3ccccc32)ccc1-c1ccccc1Cl [Example 21],2.9,1,–
Cc1cc(C(=O)N2Cc3ccc(C(=O)NCc4cccnc4)n3Cc3ccccc32)ccc1-c1cccs1 [Example 104],3,0.4,–

# Source: US7678787B2, “Pyrrolobenzodiazepine pyridine carboxamides and derivatives as follicle-stimulating hormone receptor antagonists” (Wyeth, priority 2005, dated 2010)
